Laboratory results: ChEMBL document CHEMBL6096649, “Enantiomeric C-6 fluorinated swainsonine derivatives as highly selective and potent inhibitors of α-mannosidase and α-l-rhamnosidase: Design, synthesis and structure-activity relationship study” (Eur J Med Chem, 2025)

Legend:
[1] = Inhibition of human liver Alpha-mannosidase
[2] = molecular target: Alpha-glucosidase (Saccharomyces cerevisiae S288c) (UniProt P53341+P38158+P07265); assay: Inhibition of yeast Alpha-glucosidase using p-nitrophenyl glycoside as substrate assessed as p-nitrophenol release at 1000 uM by spectrometric analysis relative to control; assay type: protein assay
Oryza sativa = assay: Inhibition of rice Alpha-glucosidase using p-nitrophenyl glycoside as substrate assessed as p-nitrophenol release at 1000 uM by spectrometric analysis relative to control
Rattus norvegicus = species on record: Rattus norvegicus; assay: Inhibition of rat intestinal Alpha-glucosidase using p-nitrophenyl glycoside as substrate assessed as p-nitrophenol release at 1000 uM by spectrometric analysis relative to control
[3] = molecular target: Alpha glucosidase (Homo sapiens) (UniProt O43451+P10253+P14410+Q2M2H8); assay: Inhibition of human Alpha-glucosidase using p-nitrophenyl glycoside as substrate assessed as p-nitrophenol release at 1000 uM by spectrometric analysis relative to control; assay type: protein assay
Prunus dulcis = assay: Inhibition of almond Beta-glucosidase using p-nitrophenyl glycoside as substrate assessed as release of p-nitrophenol at 1000 uM by spectrometric analysis relative to control
Bos taurus [4] = species on record: Bos taurus; assay: Inhibition of bovine liver beta-glucosidase using p-nitrophenyl glycoside as substrate assessed as release of p-nitrophenol at 1000 uM by spectrometric analysis relative to control
Homo sapiens = species on record: Homo sapiens; assay: Inhibition of human lysosome beta-glucosidase using p-nitrophenyl glycoside as substrate assessed as release of p-nitrophenol at 1000 uM by spectrometric analysis relative to control
[5] = molecular target: Alpha-galactosidase (Coffea arabica) (UniProt Q42656); assay: Inhibition of coffee bean alpha-galactosidase using p-nitrophenyl glycoside as substrate assessed as release of p-nitrophenol at 1000 uM by spectrometric analysis relative to control
Sequence of Alpha-galactosidase (Coffea arabica) (Q42656 16-378 limits assumed): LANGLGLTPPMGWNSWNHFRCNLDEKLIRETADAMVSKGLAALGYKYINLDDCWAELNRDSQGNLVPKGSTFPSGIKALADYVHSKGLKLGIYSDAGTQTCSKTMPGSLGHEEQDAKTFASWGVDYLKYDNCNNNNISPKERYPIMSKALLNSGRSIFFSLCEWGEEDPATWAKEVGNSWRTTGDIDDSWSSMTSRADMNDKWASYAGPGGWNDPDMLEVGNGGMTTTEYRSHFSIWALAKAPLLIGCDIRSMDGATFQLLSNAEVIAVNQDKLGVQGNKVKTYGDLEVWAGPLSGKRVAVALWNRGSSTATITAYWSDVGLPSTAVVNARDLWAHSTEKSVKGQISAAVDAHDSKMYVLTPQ

Bos taurus [6] = species on record: Bos taurus; assay: Inhibition of bovine liver beta-galactosidase using p-nitrophenyl glycoside as substrate assessed as release of p-nitrophenol at 1000 uM by spectrometric analysis relative to control
[7] = molecular target: T1, Alpha-mannosidase (Canavalia ensiformis) (UniProt C0HJB3); assay: Inhibition of jack bean alpha-mannosidase using p-nitrophenyl glycoside as substrate assessed as release of p-nitrophenol at 1000 uM by spectrometric analysis relative to control
T1 sequence (whole entry): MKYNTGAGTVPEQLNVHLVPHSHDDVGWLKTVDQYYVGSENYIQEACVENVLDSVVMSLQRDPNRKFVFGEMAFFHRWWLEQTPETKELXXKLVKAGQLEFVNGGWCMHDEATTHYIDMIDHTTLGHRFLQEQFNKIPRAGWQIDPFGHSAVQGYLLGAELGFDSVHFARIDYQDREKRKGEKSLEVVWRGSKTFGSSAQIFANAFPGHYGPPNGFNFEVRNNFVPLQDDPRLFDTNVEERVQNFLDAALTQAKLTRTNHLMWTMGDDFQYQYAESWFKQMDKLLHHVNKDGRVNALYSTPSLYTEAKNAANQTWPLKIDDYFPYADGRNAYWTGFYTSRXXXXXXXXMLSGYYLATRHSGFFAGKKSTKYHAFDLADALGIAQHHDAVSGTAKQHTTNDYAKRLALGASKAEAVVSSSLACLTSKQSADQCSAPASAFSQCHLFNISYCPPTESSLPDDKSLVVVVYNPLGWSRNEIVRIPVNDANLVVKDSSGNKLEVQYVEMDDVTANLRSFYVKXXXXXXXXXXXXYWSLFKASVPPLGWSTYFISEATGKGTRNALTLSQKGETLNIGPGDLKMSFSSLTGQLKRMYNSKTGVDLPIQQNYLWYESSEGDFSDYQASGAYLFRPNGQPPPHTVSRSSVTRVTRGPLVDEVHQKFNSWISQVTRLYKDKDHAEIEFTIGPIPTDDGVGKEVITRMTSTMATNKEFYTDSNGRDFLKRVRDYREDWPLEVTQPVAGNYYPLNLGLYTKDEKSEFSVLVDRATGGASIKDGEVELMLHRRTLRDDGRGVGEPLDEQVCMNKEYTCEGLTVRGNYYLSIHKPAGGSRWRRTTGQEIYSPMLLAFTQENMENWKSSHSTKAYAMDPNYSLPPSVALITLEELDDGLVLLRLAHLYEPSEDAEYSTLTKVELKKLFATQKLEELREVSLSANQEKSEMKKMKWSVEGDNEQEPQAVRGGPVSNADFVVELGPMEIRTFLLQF

Helix pomatia = assay: Inhibition of snail beta-mannosidase using p-nitrophenyl glycoside as substrate assessed as release of p-nitrophenol at 1000 uM by spectrometric analysis relative to control
Sus scrofa = species on record: Sus scrofa; assay: Inhibition of porcine kidney Alpha alpha-trehalase using p-nitrophenyl glycoside as substrate assessed as release of p-nitrophenol at 1000 uM by spectrometric analysis relative to control
Aspergillus niger = assay: Inhibition of Aspergillus niger amyloglucosidase using p-nitrophenyl glycoside as substrate assessed as release of p-nitrophenol at 1000 uM by spectrometric analysis relative to control
Penicillium decumbens = assay: Inhibition of Penicillium decumbens alpha-L-rhamnosidase using p-nitrophenyl glycoside as substrate assessed as release of p-nitrophenol at 1000 uM by spectrometric analysis relative to control
Escherichia coli = assay: Inhibition of Escherichia coli beta-glucuronidase using p-nitrophenyl glycoside as substrate assessed as release of p-nitrophenol at 1000 uM by spectrometric analysis relative to control
Bos taurus [8] = species on record: Bos taurus; assay: Inhibition of bovine liver beta-glucuronidase using p-nitrophenyl glycoside as substrate assessed as release of p-nitrophenol at 1000 uM by spectrometric analysis relative to control

| SMILES | IC50 [1] [µM] | inhibition [2] [%] | inhibition (Oryza sativa) [%] | inhibition (Rattus norvegicus) [%] | inhibition [3] [%] | inhibition (Prunus dulcis) [%] | inhibition (Bos taurus [4]) [%] | inhibition (Homo sapiens) [%] | inhibition [5] [%] | inhibition (Bos taurus [6]) [%] | inhibition [7] [%] | inhibition (Helix pomatia) [%] | inhibition (Sus scrofa) [%] | inhibition (Aspergillus niger) [%] | inhibition (Penicillium decumbens) [%] | inhibition (Escherichia coli) [%] | inhibition (Bos taurus [8]) [%] | Ki [1] [µM] |
| --- | --- | --- | --- | --- | --- | --- | --- | --- | --- | --- | --- | --- | --- | --- | --- | --- | --- | --- |
| O[C@H]1[C@H]2[C@@H](O)CCCN2C[C@H]1O | 51 | 0 | 0 | 0 | 0 | 3.2 | 4.5 | 0 | 0 | 0.8 | 51 | 0 | 0 | 1.8 | 47.5 | 0 | 5.7 |  |
| O[C@H]1[C@H]2[C@@H](O)CC(F)(F)CN2C[C@H]1O |  | 1.1 | 2.5 | 25 | 0.4 | 3.7 | 5.8 | 0 | 0 | 0 | 12.2 | 0.8 | 1.5 | 1.8 | 144 | 0 | 11.4 |  |
| O[C@@H]1[C@H](O)C[S+]2CCCS[C@H]12 (stereo not given in full) | 97 |  |  |  |  |  |  |  |  |  |  |  |  |  |  |  |  |  |
| O[C@H]1[C@H]2[C@@H](O)C[C@H](F)CN2C[C@H]1O |  | 3.4 | 15.9 | 0 | 3 | 3.2 | 3.8 | 7.1 | 0 | 0 | 14.9 | 21.7 |  | 2.3 | 11.3 | 0 | 3.1 |  |
| OC[C@@H]1[C@@H](O)[C@@H](O)[C@H]2[C@H](O)CCCN21 | 1.2 |  |  |  |  |  |  |  |  |  |  |  |  |  |  |  |  |  |
| OC[C@H](NC[C@H]1OC[C@H](O)[C@@H]1O)c1ccccc1 | 4.2 |  |  |  |  |  |  |  |  |  |  |  |  |  |  |  |  |  |
| O[C@@H]1[C@@H]2[C@@H](O)C[C@H](F)CN2C[C@@H]1O |  | 4.5 | 0 | 18.3 | 5.1 | 0 | 16 | 9.6 | 0 | 11.7 | 3.9 | 2.5 |  | 17.7 | 0.43 | 9.3 | 12.5 |  |
| OC[C@@H](O)[C@H]1NC[C@@H](O)[C@H]1O | 3.9 |  |  |  |  |  |  |  |  |  |  |  |  |  |  |  |  |  |
| O=C(OC[C@H](NC[C@H]1OC[C@H](O)[C@@H]1O)c1ccccc1)c1ccc(Br)cc1 | 89 |  |  |  |  |  |  |  |  |  |  |  |  |  |  |  |  |  |
| OC[C@H]1[C@@H](O)[C@@H](O)CN1Cc1ccccc1 | 0.09 |  |  |  |  |  |  |  |  |  |  |  |  |  |  |  |  |  |
| NC[C@@H]1[C@@H](O)[C@@H](O)[C@H]2[C@H](O)CCCN21 |  |  |  |  |  |  |  |  |  |  |  |  |  |  |  |  |  | 0.097 |
